What all share (assay type): biochemical
One test deals with T1, Aβ (1-42) (Homo sapiens, UniProt P05067).
T1 construct: Required Aβ (1-42) (California Peptide) was dried from its hexafluoroisopropanol (HFIP) stock solution; purchased California Peptide
In words: BATYM assay (Aβ (1-42) aggregation, Thioflavin T fluorescence). Conditions: Aβ 1-42 final concentration 100 μM, 37° C., 1 day, letter = synthetic lot. On the procedure:
Required Aβ (1-42) (California Peptide) was dried from its hexafluoroisopropanol (HFIP) stock solution. The Aβ (1-42) was dissolved in dimethylsulfoxide (DMSO) and then mixed with phosphate buffered saline (PBS) (pH 7.4). The mixed Aβ (1-42) solution was filtered with a 0.2 μm Omnipore membrane syringe filter Millipore, Bedford, Mass.). The compound to be tested in DMSO (50 times concentrate) was put into each well (0.5 μL/well) of a 96-well plate. The Aβ (1-42) solution was added into each well (24.5 μL/well). The plate was centrifuged at 1,000 g for 5 minutes and incubated at 37° C. for 1 day (Aβ 1-42; final concentration 100 μM).
After incubation Thioflavin T (ThT) (30 μM) solution in glycine-NaOH buffer (pH 8.5, 50 mM) was added into each well (250 μL/well), fluorescence was measured (ex=440/20 nm, em=485/20 nm) using a fluorescence plate reader. The inhibitory activity was calculated as the reduction of fluorescence with the following formula: Inhibition (%)={(F(Aβ)−F(Aβ+compound)}/{F(Aβ)−[…]}×100
The IC50s were calculated by a curve fitting program using the following equation. The data were obtained from two different experiments in triplicate.
x=Concentration of tested compound (M),

The target in test [1] is T2, Aβ(1-40) (Homo sapiens, UniProt P05067).
T2 construct: […]; purchased Bachem, Torrance, Calif
T2 sequence (P05067 672-711 limits assumed): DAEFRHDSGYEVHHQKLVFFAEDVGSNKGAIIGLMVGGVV
In words: BASSR (Beta-Amyloid Self-Seeding Radioassay), inhibitors of self-seeded amyloid fibril growth. On the procedure:
BASSR (Beta-Amyloid Self-Seeding Radioassay)
(§1) An assay for inhibitors of self-seeded amyloid fibril growth
Assay Buffer—50 mM sodium phosphate, pH 7.5, 100 mM NaCl, 0.02% NaN3, 1 M urea (filter and store at 4° C.).
(§2) Typically, the solution should be stored until no lag phase is seen in the assay.
^125I-labeled Aβ(1-40)—150K-350K cpm/μL in 100% acetonitrile—0.1% trifluoroacetic acid (TFA)—1% β-mercaptoethanol (aliquots stored at −20° C.). ^125I-labeled Aβ(1-40) can be made in accordance with the procedure set forth by H. LeVine, III in Neurobiol. Aging, 16, 755, (1995), which is hereby incorporated by reference, or this reagent may be purchased from Amersham, Arlington Heights, Ill.
The following are the amounts of the components of the reaction mixture sufficient for 50 assay wells:
• 1) Prepare reaction mixture above by mixing components and storing on ice. • 2) Pipet 14.5 μL of reaction mixture into each of 50 wells on a polypropylene U-bottom 96-well microtiter plate on ice. (Costar 3794). • 3) Add 1.7 μL of diluted compound to be tested to each well in a column of eight, including solvent control. Serial 3-fold dilutions from 1 mM (100 μM final) in assay buffer−urea=7 dilutions+zero. Each 96-well plate can therefore accommodate 11 samples+1 Congo Red control (0.039-5 μM final in 2-fold steps). • 4) Seal the plate with aluminum film (Beckman 538619) and incubate for 10 minutes on ice. • 5) Raise the temperature to 37° C. and incubate for 3 to 5 hours (depending on the lot of the peptide). • 6) Remove the aluminum film and add 200 μL/well of ice cold assay buffer with urea, collecting the radiolabeled fibrils by vacuum filtration through 0.2 μm pore size GVWP filters in 96-well plates (Millipore MAGV N22, Bedford, Mass.). Determine the radioactivity of the filters using standard methods well-known to those skilled in the art. BASST (Beta-Amyloid Self-Seeding, Thioflavin T)

Test [2] concerns the target T2, Aβ(1-40). As to the kind of experiment: BASST (Beta-Amyloid Self-Seeding, Thioflavin T), inhibitors of self-seeded amyloid fibril growth. On the procedure:
as §1
Assay Buffer—50 mM sodium phosphate, pH 7.5, 100 mM NaCl, 0.02% NaN3, 1 M urea (filter and store at 4° C.)
as §2
The following are the amounts of the components of the reaction mixture that result in each of the 50 assay wells:
• 1) Prepare the reaction mix above by mixing the components and storing on ice. • 2) Pipet 14.5 μL of reaction mixture into each of 50 wells of a polystyrene U-bottom 96-well microtiter plate (Corning 25881-96) on ice. • 3) Add 1.7 μL of diluted compound to be tested to each well in a column of eight, including solvent control. Serial 3-fold dilutions from 1 mM (100 μM final) in assay buffer−urea=7 dilutions+zero. Each 96-well plate can therefore accommodate 11 samples+1 Congo Red control (0.039-5 μM final in 2-fold steps). • 4) Seal the plate with aluminum film and incubate for 10 minutes on ice. • 5) Raise the temperature to 37° C. and incubate for 3 to 5 hours (depends on the lot of the peptide). • 6) Remove the aluminum film and add 250 μL/well of 5 μM thioflavin T (ThT) [T-3516, Sigma-Aldrich] in 50 mM glycine-NaOH, pH 8.5. Read fluorescence on a plate reader (ex=440 nm/20 nm; em=485 nm/20 nm) within 5 minutes. BAPA (Beta-Amyloid Peptide Aggregation)

A further test addresses T3, Aβ (1-40) peptide (Homo sapiens, UniProt P05067).
T3 construct: 10 μL 0.5 mg/mL Aβ (1-40) peptide in 20% HFIP
As to the kind of experiment: BAPA (Beta-Amyloid Peptide Aggregation, pH 6.0, filtration). To be noted: Aβ (1-40) 33 μM, pH 6.0, 2 to 4 hours at room temperature; replicate values; letter = synthetic lot. On the procedure:
Each 96-well plate can therefore accommodate 11 samples+1 Congo Red control (0.039-5 μM final in 2-fold steps). • 4) Seal the plate with aluminum film and incubate for 10 minutes on ice. • 5) Raise the temperature to 37° C. and incubate for 3 to 5 hours (depends on the lot of the peptide). • 6) Remove the aluminum film and add 250 μL/well of 5 μM thioflavin T (ThT) [T-3516, Sigma-Aldrich] in 50 mM glycine-NaOH, pH 8.5. […] The purpose of this assays is to provide a higher volume method of assaying the amount of beta amyloid aggregation using an endpoint assay based on filtration. In this assay, hexafluoroisopropanol (HFIP) is used to break down the initial amyloid peptide to a monomer state and use a concentration of 33 μM which is high enough so that aggregation will occur at pH 6.0 in several hours. Methods: […] Then, we incubate for 2 to 4 hours at room temperature. […] We wash the filter plate with 100 μL of the same phosphate buffer. Aggregation was detected on a Microbeta counter after impregnating the filters with Meltilex (1450-441) and is corrected for background.

[3] abbreviates: 30 μM soluble Aβ(1-40) + 125I-labeled Aβ(1-40), 37° C., 3 to 5 hours, replicate values, letter = synthetic lot, ppt = precipitate, V-shaped = inhibition followed by precipitation.
[4] abbreviates: 30 μM soluble Aβ(1-40), 37° C., 3 to 5 hours, thioflavin T fluorescence, replicate values, letter = synthetic lot, read-out: BASST (IC50 = μM).

Where “and” joins values, the source holds several entries; their conditions need not be identical. Identical values can stand only once. Counter-ions that a name gives are not always drawn.

T3 sequence (P05067 672-711 limits assumed): as above
T1 sequence (P05067 672-713 limits assumed): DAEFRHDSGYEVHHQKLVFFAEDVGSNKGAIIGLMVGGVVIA

What is called IC50 is the point on the concentration scale where inhibition reaches its midpoint. As for `CCCN(CCC)c1cccc(CCCc2ccc(Nc3ccccc3C(=O)O)cc2)c1` [Example 27, 2-{4-[3-(3-Dipropylaminophenyl)propyl]phenylamino}benzoic acid], the IC50 on Aβ (1-42) was 19.8 µM; on Aβ(1-40) [1] (setting [3]) it was greater than 100 µM; at Aβ(1-40) [2] (setting [4]), 3 µM; at Aβ (1-40) peptide it was 74 µM.

`CN(C)c1ccc(CCCc2ccc(Nc3ccccc3C(=O)O)cc2)cc1` [Example 34, 2-{4-[3-(4-Dimethylaminophenyl)propyl]phenylamino}benzoic acid]: the half-maximal inhibitory concentration (IC50) on Aβ (1-42) came out at 45 µM; on Aβ(1-40) [1] (setting [3]), 45 µM; on Aβ(1-40) [2] (setting [4]), 3 µM; on Aβ (1-40) peptide, 48 µM.

Turning to `CCN(CC)c1ccc(CCCc2ccc(N(CC)c3ccccc3C(=O)O)cc2)cc1` [Example 30, 2-(N-{4-[3-(4-Diethylaminophenyl)propyl]phenyl}-N-ethylamino)benzoic acid], the IC50 on Aβ (1-42) is 75.3 µM; at Aβ(1-40) [1] (setting [3]), 30 µM and 20 µM; on Aβ(1-40) [2] (setting [4]), 4 µM and 2 µM; on Aβ (1-40) peptide it was 38 µM.

In the case of `O=C(O)c1ccccc1Nc1ccc(CCc2ccc(Cl)c(Cl)c2)cc1` [Example 117, 2-{4-[2-(3,4-Dichloro-phenyl)-ethyl]-phenylamino}-benzoic acid monosodium], the IC50 was 61.3 µM on Aβ (1-42), greater than 100 µM at Aβ(1-40) [1] (setting [3]), 3 µM at Aβ(1-40) [2] (setting [4]) and greater than 100 µM against Aβ (1-40) peptide.

Regarding `Cc1ccc(CCc2ccc(Nc3ccc([N+](=O)[O-])cc3C(=O)O)cc2)cc1C` [Example 61, 2-{4-[2-(3,4-Dimethyl-phenyl)-ethyl]-phenylamino}-5-nitro-benzoic acid], the results for the IC50 against Aβ (1-42) and on Aβ (1-40) peptide were 12 µM and 13 µM, respectively.

Consider `Clc1ccc(CCc2ccc(Nc3ccccc3-c3nnn[nH]3)cc2)cc1Cl` [Example 68, {4-[2-(3,4-Dichloro-phenyl)-ethyl]-phenyl}-[2-(1H-tetrazol-5-yl)phenyl]-amine], for which the IC50 at Aβ (1-42) was greater than 100 µM; on Aβ(1-40) [1] (setting [3]), greater than 100 µM; on Aβ(1-40) [2] (setting [4]) it was 1 µM; against Aβ (1-40) peptide, 110 µM.

With “2-{4-[3-(3-Aminophenyl)propyl]phenylamino}benzoic acid [Example 23]”, the concentration for half-maximal inhibition (IC50) was greater than 100 µM against Aβ (1-42), 20 µM at Aβ(1-40) [1], 2 µM at Aβ(1-40) [2] (read-out: BASST (IC50 = μM)) and 17 µM against Aβ (1-40) peptide.

With `O=C(NS(=O)(=O)C(F)(F)F)c1ccccc1Nc1ccc(CCCc2ccc(Cl)c(Cl)c2)cc1` [Example 141, N-(2-{4-[3-(3,4-Dichloro-phenyl)-propyl]-phenylamino}-benzoyl)-C,C,C,-trifluoro-methanesulfonamide], the IC50 was 56.7 µM against Aβ (1-42), greater than 100 µM at Aβ(1-40) [1] (setting [3]), 7 µM at Aβ(1-40) [2] (setting [4]) and greater than 50 µM on Aβ (1-40) peptide.

As to `CCCN(CCC)c1ccc(CCCc2ccc(Nc3ccccc3C(=O)O)cc2)cc1` [Example 43, 2-{4-[3-(4-Dipropylaminophenyl)propyl]phenylamino}benzoic acid], the IC50 was 24.2 µM against Aβ (1-42), greater than 100 µM at Aβ(1-40) [1] (setting [3]), 0.3 µM at Aβ(1-40) [2] (setting [4]) and 63 µM against Aβ (1-40) peptide.

Take `CCCN(CCC)c1ccc(Nc2ccc(CCc3ccc(Cl)c(Cl)c3)cc2)c(C(=O)O)c1` [Example 149, 2-{4-[2-(3,4-Dichlorophenyl)-ethyl]-phenylamino}-5-dipropylamino-benzoic acid]: the 50% inhibitory concentration (IC50) on Aβ (1-42) was greater than 100 µM; at Aβ(1-40) [1] (setting [3]) it was greater than 100 µM; at Aβ(1-40) [2] (setting [4]), greater than 100 µM; against Aβ (1-40) peptide, greater than 60 µM.

For the compound `CCCCN(CCCC)c1cccc(CCCc2ccc(Nc3ccccc3C(=O)O)cc2)c1` [Example 45, 2-{4-[3-(3-Dibutylaminophenyl)propyl]phenylamino}benzoic acid], the IC50 at Aβ (1-42) was 21.5 µM; on Aβ(1-40) [1] (setting [3]), greater than 100 µM; on Aβ(1-40) [2] (setting [4]), 1 µM; against Aβ (1-40) peptide, 32 µM.

As for `O=C(O)c1ccccc1Nc1ccc(CCCCc2ccc(Cl)c(Cl)c2)cc1` [Example 10, 2-{4-[4-(3,4-Dichlorophenyl)butyl]phenylamino}benzoic acid], the IC50 against Aβ (1-42) was 75.7 µM; at Aβ(1-40) [1] (setting [3]), 70 µM and 50 µM; at Aβ(1-40) [2] (setting [4]), 4 µM; on Aβ (1-40) peptide, 67 µM.

For `O=C(O)c1cc([N+](=O)[O-])cc([N+](=O)[O-])c1Nc1ccc(CCCCc2ccc(Cl)c(Cl)c2)cc1` [Example 12, 2-{4-[4-(3,4-Dichlorophenyl)butyl]phenylamino}-3,5-dinitrobenzoic acid], the IC50 against Aβ (1-42) was 3.93 µM; on Aβ(1-40) [1] (setting [3]), 20 µM; on Aβ(1-40) [2] (setting [4]), 1 µM; on Aβ (1-40) peptide, greater than 60 µM.

In the case of `CCN(CC)c1ccc(CCCc2ccc(Nc3ccccc3C(=O)O)cc2)cc1` [Example 19, 2-{4-[3-(4-Diethylaminophenyl)propyl]phenylamino}benzoic acid], the half-inhibitory concentration (IC50) against Aβ (1-42) was 31 µM and 34 µM; against Aβ (1-40) peptide, > 60 µM and 43 µM.

With `CCN(CC)c1ccc(CCc2ccc(Nc3ccccc3C(=O)O)cc2)cc1` [Example 26, 2-{4-[2-(4-Diethylaminophenyl)ethyl]phenylamino}benzoic acid monohydrochloride monohydrate], the values for the 50% inhibitory concentration (IC50) against Aβ (1-42), against Aβ(1-40) [2] (BASST (IC50 = μM)) and on Aβ (1-40) peptide were greater than 100 µM, 1 µM and 57 µM, respectively.

With `O=C(O)c1ccccc1Nc1ccc(CCc2ccc(Cl)c(Cl)c2)cc1` [Example 1, 2-{4-[2-(3,4-Dichlorophenyl)ethyl]phenylamino}-benzoic acid], the IC50 is > 60 µM and 50 µM and 58.8 µM and 57.8 µM at Aβ (1-42); > 100 µM (5×) and 52 µM and 10 µM on Aβ(1-40) [1] (setting [3]); > 60 µM and 11 µM and > 100 µM and 86 µM on Aβ (1-40) peptide.

Source of the values: patent publication US6972287B1, “Method of inhibiting amyloid protein aggregation and imaging amyloid deposits” (Pfizer Inc., priority 1999, dated 2005).
